Key:
[1] = system: Rattus norvegicus; details: for LD50: acute, oral, mortality
[2] = system: Oryctolagus sp.; details: reproduction developmental; body weight
[3] = system: Pleurozium sp.; details: acute; duration: 96 hours; biomass
[4] = system: Apis mellifera; details: acute, mortality
[5] = system: Oncorhynchus mykiss; details: acute; duration: 96 hours; mortality
[6] = system: Tagia sp.
[7] = system: Pimephales promelas; details: chronic/long-term; duration: 34 days; other
[8] = system: Bibionidae; details: chronic/long-term; other
[9] = system: Daphnia magna; details: chronic/long-term; duration: 21 days; reproduction
[10] = system: Colinus virginianus
[11] = system: Neomysis kadiakensis; details: acute; duration: 96 hours; mortality
[12] = system: Landoltia sp.; details: chronic/long-term; duration: 7 days; biomass

Structure (SMILES)	LD50 [1]	NOAEL ([1]; subchronic, duration: 90 days)	NOAEL [2]	NOEC [3]	LD50 ([4]; dermal)	LD50 ([4]; oral, unspecified)	NOAEL ([1]; chronic, clinical signs)	NOAEL ([1]; chronic, duration: 2 years, F, ophthalmoscopic examination)	NOAEL ([1]; subchronic, duration: 90 days, ophthalmoscopic examination)	NOEC [5]	LC50 ([6]; acute, duration: 14 days, mortality)	NOEC ([6]; chronic/long-term, duration: 28 days, reproduction)	NOEC [7]	NOEC [8]	NOEC [9]	LC50 ([10]; acute, oral, diet, mortality)	LD50 ([10]; acute, oral, mortality)	NOEC ([10]; reproduction developmental)	NOEC [11]	NOEC [12]
CS(=O)(=O)c1ccc(C(=O)C2C(=O)C(O)CC(O)C2=O)c(Cl)c1COCC(F)(F)F (configuration not stated)	> 2000 mg/kg-day	12.7 mg/kg-day	1 mg/kg-day	–	–	–	–	–	–	–	–	–	–	–	–	–	–	–	–	–
CS(=O)(=O)c1ccc(C(=O)C2C(=O)CCCC2=O)c(Cl)c1COCC(F)(F)F [Tembotrione]	> 2000 mg/kg-day	–	1 mg/kg-day	0.2 mg/L	> 100 µg/piece	> 92.8 µg/piece	0.8 mg/kg-day	0.04 mg/kg-day	0.07 mg/kg-day	100 mg/L	1000 mg/kg	1.25 mg/kg	0.604 mg/L	2 mg/L	5 mg/L	> 1790 mg/kg-day	> 2250 mg/kg-day	22.2 mg/kg-day	0.046 mg/L	0.0032 mg/L
